Assays:
Bacillus subtilis = assay: Antibacterial activity against Bacillus subtilis at 40 ug; type: functional; conditions: read-out: IZ
P388 = assay: Cytotoxicity against mouse P388 cells; type: functional, cell-based

SMILES	zone of inhibition at 40 µg/disc (Bacillus subtilis) [mm]	IC50 (P388) [µM]
COC(=O)/C(=C1/OC(=O)C(c2ccc(OC)cc2)=C1O)c1ccc(OC)c(Cl)c1	7	
COC(=O)/C(=C1/OC(O)=C(c2ccc(OC)cc2)C1=O)c1ccc(OC)cc1	8	
COC(=O)/C(=C1/OC(=O)C(c2ccc(OC)cc2)=C1O)c1cc(Cl)c(OC)c(Cl)c1	4	20.6
